Measured values as given in patent US6559280B2, “Controlling protein levels in eucaryotic organisms” (Proteinix, Inc., priority 1999, dated 2003).
Non-standard residues stand in square brackets, D forms with d. No end group written: not given here. Ahx = NCCCCCC(=O)O

What was measured:
[1] = tested on: E2 ubiquitination reaction; conditions: patent application GB 2,320,570; cited from earlier work
[2] = tested on: [125I]-lysozyme degradation in the reticulocyte lysate; assay: inhibition of [125I]-lysozyme degradation in reticulocyte lysate by ubiquitination recognition elements; type: biochemical, rabbit; conditions: for lysozyme degradation, result at the 2 hour time point: no treatment 12,475 cpm
Experimental: Proteins were labeled by Lofstrand Laboratories Ltd. (Gaithersburg, Md.) Labeled to […] by oxidation of Na^125I using an iodobead chloramine-T procedure. The ubiquitin-dependent protein degradation assay was preformed by the addition of 70 μL of rabbit reticulocyte lysate and 5 uL of 0.06 μCi/μL ^25I-labeled protein to […] of reaction buffer containing 40 mM Tris pH 7.6, 2 mM DTT, 5 mM MgCl2, 0.5 mM ATP, 35 μg creatine phosphokinase (Sigma) and 10 mM phosphocreatine. The reaction were run at 37 C. in a heating block, and at time points 30 μL of the reaction was transferred to 50 μl of cold 100 mg/mL BSA and protein was precipitated by the addition of 420 μL of 23% TCA followed by 15 min on ice. The precipitated samples were microfuged for 2 min at 5000 rpm and 300 μL of supernatant was then counted for TCA-soluble ^125I on a gamma counter (Hidex).
In order to determine if a given molecule or molecular element is potentially valuable as a ubiquitination recognition element the assay described above is run with [^125I]-lysozyme or other labeled protein substrates in the presence of potential ubiquitination recognition elements.
The results at the 2 hour time point were 12,475 cpm for no treatment, 6,486 cpm for the 2 mM Arg-εAhx-Cys treatment and 3,592 cpm for the 5 mM Phe-εAhx-Cys treatment.

Compound | inhibition of an E2 ubiquitination reaction [1] | effect on lysozyme degradation in the reticulocyte lysate [2] | lysozyme degradation, result at the 2 hour time point ([2]; 2 mM treatment) | lysozyme degradation, result at the 2 hour time point ([2]; 5 mM treatment)
O=S(=O)(O)c1cc(Nc2nc(Cl)nc(Nc3ccc(Cl)c(Nc4nc(Cl)nc(Nc5cc(S(=O)(=O)O)cc6cc(S(=O)(=O)O)c(N=Nc7ccc8ccccc8c7S(=O)(=O)O)c(O)c56)n4)c3)n2)c2c(O)c(N=Nc3ccc4ccccc4c3S(=O)(=O)O)c(S(=O)(=O)O)cc2c1 [compound Z, 1-chloro-2,4-bis{4-[2-chloro-6-(5-(2,7-disulfo-4-hydroxy-3-(2-(1-sulfonaphthyl)azo)naphthyl)amino)-1,3,5-triazinyl]amino}benzene] | inhibited an E2 ubiquitination reaction | – | – | –
Arg-εAhx-Cys (Arg-[Ahx]-Cys) [ubiquitination recognition element, Type I recognition with caproic acid linker and C-terminal Cys] | – | inhibition of the lysozyme degradation | 6,486 cpm | –
Phe-εAhx-Cys (Phe-[Ahx]-Cys) [ubiquitination recognition element, Type II recognition with caproic acid linker and C-terminal Cys] | – | inhibition of the lysozyme degradation | – | 3,592 cpm
